Laboratory results as given in patent US20110281726A1, “GLEDITSIA AMORPHOIDES SEEDLESS POD EXTRACT AND ITS USE AS AN AGRICULTURAL ADJUVANT” (IDEASUPPLY.COM ARGENTINA S.A., priority 2005, published 2011).

How the values were obtained:
Format in all cases: in vivo
[1] = tested on: alfalfa (Medicago Sativa L.); assay: Influence of CU co-adjuvant on the activity of defoliant Paraquat in alfalfa; settings: Paraquat 1 l/ha, CU 0.25% v/v, emulsion oil 1% v/v, five days after treatment, day-night temperatures 30/21° C.
Procedure: Another application with agrochemicals was conducted by assessing the influence of the “CU” co-adjuvant of the invention on the activity of defoliant “Paraquat” in alfalfa (Medicago Sativa L.)
For such purpose, the effect of the addition of the surfactant Coronillo Ultra (CU) at 0.25% v/v and emulsion oil at 1% v/v to defoliant Paraquat at a 1 l/ha concentration, in conditions of high and low temperatures during both the day and at night on alfalfa was assessed.

[2] = tested on: leafmining moth (Phyllocnistis Citrella Stainton); assay: Control of leafmining moth: injection into tunnels and application on foliar surface
Text: Efficacy of “avemectin” and the CU co-adjuvant of the invention to control leafmining moth (Phyllocnistis Citrella Stainton.)
Two assays were designed in order to assess the effect of two concentrations of the Coronillo Ultra surfactant and combinations of both products to control leafmining moth in citrus (Phyllocnistis Citrella Stainton.)
One of the assays was geared to testing the action of the direct contact of the products, both pure and in mixtures, with the larvae of the second and third stages by injecting the solution into the tunnels. The second assay aimed at assessing the effect of its application on the foliar surface affected with tunnels. In both assays, methylene blue dye was used as tracer to assess the flow of the solution inside the tunnel and the larvae.
In the treatments applied over the foliar surface, effects were noticed only when the active penetrated the epidermis and came into contact with the insect inside the tunnel.

[3] = tested on: leafmining moth (Phyllocnistis Citrella Stainton); assay: Control of leafmining moth: field test in a five-year vegetable garden
Procedure: Finally, the above treatments were tested on the field, in a five-year vegetable garden.

Compound | defoliation [1] | effect of avemectin applied over the foliar surface ([2]; high concentrations) | effect of avemectin when injected ([2]; low doses) | control percentage after 14 days [3]
C[n+]1ccc(-c2cc[n+](C)cc2)cc1 [Paraquat] | 17% | – | – | –
avemectin | – | effective | same effect | low control percentage
